According to patent US11999742B2, “Substituted pyrrolo[1,2-b]pyridazines as anthelmintics” (BOEHRINGER INGELHEIM VETMEDICA GMBH, priority 2021, dated 2024):

Experiments:
[1] = test system: L4 stage larvae of Dirofilaria immitis; experiment: Motility of L4 stage Dirofilaria immitis larvae, 3 days, dose response; format: cell-based; details: 72 h, read-out: EC50, motility of L4 stage D. immitis, three days at 37° C., 5% CO2, vs DMSO control
[2] = test system: Microfilaria of Dirofilaria immitis; experiment: Motility of Dirofilaria immitis microfilariae in microtiter plate, 3 days, dose response; format: cell-based; details: 72 h, read-out: EC50, motility of D. immitis microfilaria, three days at 37° C., 5% CO2, vs DMSO control
[3] = test system: Haemonchus contortus L1 larvae; experiment: Haemonchus contortus larval development L1 to L3, 4 days, dose response; details: 96 h, read-out: EC50, development of H. contortus larvae from L1 to L3
Source text: Biological Example 2: Screening Method to Test Activity of Compounds Against Haemonchus contortus

| SMILES | EC50 [1] [nM] | EC50 [2] [nM] | EC50 [3] [nM] |
| --- | --- | --- | --- |
| CC(C)c1c(C(=O)N[C@H]2CCOc3ccccc32)cnn2c(-c3cc(Cl)cc(Cl)c3)c(Cl)cc12 [Compound A463] | 10 to 100 | < 10 | 10 to 100 |
| CC(C)c1c(C(=S)N[C@H]2CCOc3ccccc32)cnn2c(-c3cc(F)cc(Cl)c3Cl)c(Cl)cc12 [Compound A539, 6-chloro-7-(2,3-dichloro-5-fluorophenyl)-N-[(4S)-3,4-dihydro-2H-1-benzopyran-4-yl]-4-(propan-2-yl)pyrrolo[1,2-b]pyridazine-3-carbothioamide] | 100 to 1000 | 10 to 100 |  |
| CC(C)(C)c1c(C(=O)NN2CCOc3ccccc32)cnn2c(-c3cc(F)cc(Cl)c3Cl)c(Cl)cc12 [Compound A494] | < 10 | 10 to 100 | 10 to 100 |
| CC1(C)CN(c2c(C(=O)N[C@H]3CCOc4ccccc43)cnn3c(-c4cc(F)cc(Cl)c4Cl)c(Cl)cc23)C1 [Compound A567] | 100 to 1000 | 1000 to 10000 | 1000 to 10000 |
| CN(C)c1c(C(=O)N[C@H]2CCOc3ccccc32)cnn2c(-c3cc(F)cc(Cl)c3Cl)c(Cl)cc12 [Compound A478] | 100 to 1000 | 10 to 100 | 10 to 100 |
| Cc1cc2c(C(C)(C)C)c(C(=O)N[C@H]3CC4(CCCC4)Oc4ccccc43)cnn2c1-c1cc(F)cc(Cl)c1Cl [Compound A548] | 1000 to 10000 | 1000 to 10000 |  |
| O=C(N[C@H]1CCOc2ccccc21)c1cnn2c(-c3cc(Cl)cc(Cl)c3Cl)c(Cl)cc2c1N1CC(F)(F)C1 [Compound A506] | < 10 | < 10 | 10 to 100 |
| Cc1cc2c(N3CCOCC3)c(C(=O)N[C@H]3CCOc4ccccc43)cnn2c1-c1cc(Cl)cc(Cl)c1Cl [Compound A501] | < 10 | < 10 | 10 to 100 |
| Cc1cc2c(N3CC(C)(F)C3)c(C(=O)N[C@H]3CCOc4ccccc43)cnn2c1-c1cc(F)cc(Cl)c1Cl [Compound A562] | 1000 to 10000 | 1000 to 10000 |  |
| CC(C)(C)c1c(C(=O)N[C@H]2CCOc3ccccc32)cnn2c(-c3cc(Cl)cc(Cl)c3)c(C(F)(F)F)cc12 [Compound A483] | < 10 | 10 to 100 | 10 to 100 |
| Cc1cc2c(C(C)(C)C)c(C(=O)N[C@H]3CCn4cncc43)cnn2c1-c1cc(F)cc(Cl)c1Cl [Compound A552] | 1000 to 10000 | 1000 to 10000 |  |
| Cc1cc2c(N3CC(C)(C)C3)c(C(=O)N[C@H]3CCOc4ccccc43)cnn2c1-c1cc(F)cc(Cl)c1Cl [Compound A564] | 1000 to 10000 | 1000 to 10000 |  |
| Cc1cc2c(C(C)(C)C)c(C(=O)N[C@H]3CCOc4ccccc43)cnn2c1-c1c(F)cc(F)cc1F [Compound A476] | < 10 | 10 to 100 | 10 to 100 |
| Cc1cc2c(N3CCOCC3)c(C(=O)N[C@H]3CCOc4ccccc43)cnn2c1-c1cc(Cl)cc(Cl)c1 [Compound A499] | < 10 | < 10 | 10 to 100 |
| Cc1cc2c(C(C)(C)C)c(C(=O)N[C@H]3CCCc4ccccc43)cnn2c1-c1cc(F)cc(Cl)c1Cl [Compound A557] | < 10 | < 10 | < 10 |
| Cc1cc2c(C(C)C)c(C(=O)N[C@H]3CCOc4ccccc43)cnn2c1-c1cc(F)cc(F)c1F [Compound A513, N-[(4S)-3,4-dihydro-2H-1-benzopyran-4-yl]-6-methyl-4-(propan-2-yl)-7-(2,3,5-trifluorophenyl)pyrrolo[1,2-b]pyridazine-3-carboxamide] | < 10 | < 10 | 10 to 100 |
| Cc1cc2c(C(C)(C)C)c(C(=O)N[C@H]3CC(C)(C)Oc4ccccc43)cnn2c1-c1cc(F)cc(Cl)c1Cl [Compound A547] | 1000 to 10000 | 1000 to 10000 |  |
| Cc1cc2c(C(C)(C)C)c(C(=O)N[C@H]3CCOc4scnc43)cnn2c1-c1cc(F)cc(Cl)c1Cl [Compound A550] | 10 to 100 | 10 to 100 | 10 to 100 |
| Cc1cc2c(N(C)C)c(C(=O)N[C@H]3CCOc4ccccc43)cnn2c1-c1cc(F)cc(Cl)c1Cl [Compound A493, 7-(2,3-dichloro-5-fluorophenyl)-N-[(4S)-3,4-dihydro-2H-1-benzopyran-4-yl]-4-(dimethylamino)-6-methylpyrrolo[1,2-b]pyridazine-3-carboxamide] | < 10 | < 10 | < 10 |
| CC(C)(C)c1c(C(=O)N[C@H]2CCOc3ccccc32)cnn2c(-c3c(F)cc(F)cc3F)c(Cl)cc12 [Compound A484] | < 10 | < 10 | < 10 |
| Cc1cc2c(C(C)(C)C)c(C(=O)N[C@H]3COc4ccccc43)cnn2c1-c1cc(F)cc(Cl)c1Cl [Compound A545] | 1000 to 10000 |  |  |
| Cc1cc2c(C(C)(C)C)c(NC(=O)NC3CCCc4ncsc43)cnn2c1-c1cc(F)cc(Cl)c1Cl (centres unmarked) [Compound A535] |  |  | 1000 to 10000 |
| CC1(F)CN(c2c(C(=O)N[C@H]3CCOc4ccccc43)cnn3c(-c4cc(F)cc(Cl)c4Cl)c(Cl)cc23)C1 [Compound A514] |  | 1000 to 10000 |  |
| Cc1cc2c(C(C)(C)C)c(C(=O)N[C@H]3CCCc4cc(F)ccc43)cnn2c1-c1cc(F)cc(Cl)c1Cl [Compound A538] | 1000 to 10000 | 1000 to 10000 |  |
| CC1(C)CN(c2c(C(=O)N[C@H]3CCOc4ccccc43)cnn3c(-c4cc(Cl)cc(Cl)c4Cl)c(Cl)cc23)C1 [Compound A515] |  |  | 1000 to 10000 |
| CN(C)c1c(C(=O)N[C@H]2CCOc3ccccc32)cnn2c(-c3cc(Cl)cc(Cl)c3)c(Cl)cc12 [Compound A475] |  | 100 to 1000 | 10 to 100 |

| SMILES | EC50 [1] [nM] | EC50 [2] [nM] | EC50 [3] [nM] |
| --- | --- | --- | --- |
| Cc1cc2c(C(C)(C)C)c(C(=O)N[C@H]3CCc4ccccc43)cnn2c1-c1cc(Cl)cc(Cl)c1 [Compound A480] | 100 to 1000 | 1000 to 10000 |  |
| CC(C)c1c(C(=O)N[C@H]2CCOc3ccccc32)cnn2c(-c3cc(Cl)cc(Cl)c3)ccc12 [Compound A470] |  | 1000 to 10000 |  |
| Cc1cc2c(C(C)(C)C)c(C(=O)N[C@H]3CCOc4ccncc43)cnn2c1-c1cc(F)cc(Cl)c1Cl [Compound A569] |  | < 10 |  |
| Cc1cc2c(N3CCOCC3)c(C(=O)N[C@H]3CCOc4ccccc43)cnn2c1-c1cc(F)cc(Cl)c1Cl [Compound A490] | < 10 | < 10 |  |
| Cc1cc2c(C(C)(C)C)c(C(=O)NC3CCCc4sccc43)cnn2c1-c1cc(F)cc(Cl)c1Cl (centres unmarked) [Compound A537] | 10 to 100 | < 10 |  |
| Cc1cc2c(C(C)(C)C)c(C(=O)N[C@H]3CCOc4ccccc43)cnn2c1-c1cc(Cl)cc(Cl)c1 [Compound A464] | < 10 | < 10 |  |
| Cc1cc2c(C(C)(C)C)c(C(=O)N(C)[C@H]3CCOc4ccccc43)cnn2c1-c1cc(F)cc(Cl)c1Cl [Compound A543, 4-tert-butyl-7-(2,3-dichloro-5-fluorophenyl)-N-[(4S)-3,4-dihydro-2H-1-benzopyran-4-yl]-N,6-dimethylpyrrolo[1,2-b]pyridazine-3-carboxamide] | 1000 to 10000 | 1000 to 10000 |  |
| CC(C)c1c(C(=O)N[C@H]2CCOc3ccccc32)cnn2c(-c3cc(Cl)cc(Cl)c3)cc(Cl)c12 [Compound A467] | 100 to 1000 | 100 to 1000 |  |
| Cc1cc2c(C(C)(C)C)c(C(=O)N[C@H]3CCc4cnccc43)cnn2c1-c1cc(F)cc(Cl)c1Cl [Compound A556] | 1000 to 10000 | 1000 to 10000 |  |
| Cc1cc(-c2cc(Cl)cc(Cl)c2)n2ncc(C(=O)N[C@H]3CCOc4ccccc43)c(C(C)C)c12 [Compound A469] | 10 to 100 | 10 to 100 |  |
| Cc1cc2c(N3CC(C)(C)C3)c(C(=O)N[C@H]3CCOc4ccccc43)cnn2c1-c1cc(F)cc(Cl)c1Cl [Compound A512] |  |  | 1000 to 10000 |
| Cc1cc2c(C(C)(C)C)c(C(=O)N[C@H]3CCOc4ccccc43)cnn2c1N1CCOCC1 [Compound A529] | 100 to 1000 | 1000 to 10000 |  |
| Cc1cc2c(N(C)C)c(C(=O)N[C@H]3CCOc4ccccc43)cnn2c1-c1cc(Cl)cc(Cl)c1Cl [Compound A568] |  | < 10 | < 10 |
| Cc1cc2c(C(C)(C)C)c(C(=O)N[C@H]3CCCc4cnn(C(C)C)c43)cnn2c1-c1cc(F)cc(Cl)c1Cl [Compound A546] | 1000 to 10000 |  |  |
| Cc1cc2c(N3CCOCC3)c(C(=O)N[C@H]3CCOc4ccccc43)cnn2c1-c1cc(F)cc(F)c1F [Compound A491] | < 10 | < 10 |  |
| CC1(F)CN(c2c(C(=O)N[C@H]3CCOc4ccccc43)cnn3c(-c4cc(Cl)cc(Cl)c4Cl)c(Cl)cc23)C1 [Compound A509] |  | 100 to 1000 |  |
| Cc1cc2c(C(C)(C)C)c(C(=O)N[C@H]3CCOc4ccccc43)cnn2c1-c1cc(Cl)cc(Cl)c1Cl [Compound A472] |  | < 10 | < 10 |
| Cc1cc2c(C(C)C)c(C(=O)N[C@H]3CCOc4ccccc43)cnn2c1-c1cc(F)cc(Cl)c1Cl [Compound A489] | < 10 | < 10 |  |
| CC(C)(C)c1c(C(=O)N[C@H]2CCc3ccccc32)cnn2c(-c3cc(Cl)cc(Cl)c3)c(Cl)cc12 [Compound A492] |  | 10 to 100 | 100 to 1000 |
| Cc1cc2c(C(C)C)c(C(=O)Nc3cccc4ccccc34)cnn2c1-c1cc(Cl)cc(Cl)c1 [Compound A521] | 100 to 1000 |  |  |
| Cc1cc2c(C(C)(C)C)c(C(=O)N[C@H]3CCOc4ccccc43)cnn2c1-c1cccc(Cl)c1Cl [Compound A519] | < 10 | < 10 |  |
| Cc1cc2c(C(C)(C)C)c(C(=O)N[C@@H]3CCc4sc(Br)nc43)cnn2c1-c1cc(F)cc(Cl)c1Cl [Compound A536b] | 1000 to 10000 | 1000 to 10000 |  |
| CC(C)c1c(C(=O)N[C@H]2CCOc3ccccc32)cnn2c(-c3cc(Cl)cc(Cl)c3)cc(C(F)(F)F)c12 [Compound A468] |  | 1000 to 10000 |  |
| Cc1cc2c(C(C)C)c(C(=O)NN3CCOc4ccccc43)cnn2c1-c1cc(Cl)cc(Cl)c1 [Compound A497] |  | 10 to 100 | 10 to 100 |
| Cc1cc2c(N3CC(C)(F)C3)c(C(=O)N[C@H]3CCOc4ccccc43)cnn2c1-c1cc(Cl)cc(Cl)c1Cl [Compound A508] |  | 1000 to 10000 |  |
